Test: mn = molality of the nth substance listed, in mol/kg
Conditions: 350 kPa, Liquid; for apparent molar heat capacity: Extra sensitive DSC

OC[C@@H](O)[C@@H](O)CO [meso-1,2,3,4-butanetetrol] + O
Conditions | apparent molar heat capacity [J/K/mol] | mass density [kg/m3]
278.15 K, m1 = 0.0201 | 261 | 1000.64
278.15 K, m1 = 0.05 | 279 | 1001.78
278.15 K, m1 = 0.0999 | 275.3 | 1003.47
278.15 K, m1 = 0.2501 | 273 | 1009.14
278.15 K, m1 = 0.4998 | 272.1 | 1017.67
278.15 K, m1 = 1 | 270.3 | 1034.19
278.15 K, m1 = 2.002 | 264 | 1062.98
278.15 K, m1 = 3.003 | 267.2 | 1087.04
283.15 K, m1 = 0.0201 | 273 | 1000.38
283.15 K, m1 = 0.05 | 290 | 1001.54
283.15 K, m1 = 0.0999 | 287.2 | 1003.19
283.15 K, m1 = 0.2501 | 285.1 | 1008.79
283.15 K, m1 = 0.4998 | 284.1 | 1017.48
283.15 K, m1 = 1 | 282.7 | 1033.48
283.15 K, m1 = 2.002 | 277.2 | 1061.96
283.15 K, m1 = 3.003 | 279.1 | 1085.8
288.15 K, m1 = 0.0201 | 282 | 999.84
288.15 K, m1 = 0.05 | 300 | 1000.96
288.15 K, m1 = 0.0999 | 296.3 | 1002.66
288.15 K, m1 = 0.2501 | 294.4 | 1008.13
288.15 K, m1 = 0.4998 | 293.4 | 1016.68
288.15 K, m1 = 1 | 291.9 | 1032.49
288.15 K, m1 = 2.002 | 286.3 | 1060.61
288.15 K, m1 = 3.003 | 288 | 1084.24
293.15 K, m1 = 0.0201 | 290 | –
293.15 K, m1 = 0.05 | 307 | –
293.15 K, m1 = 0.0999 | 303.8 | –
293.15 K, m1 = 0.2501 | 302.3 | –
293.15 K, m1 = 0.4998 | 301.3 | –
293.15 K, m1 = 1 | 299.9 | –
293.15 K, m1 = 2.002 | 294.2 | –
293.15 K, m1 = 3.003 | 295.7 | –
298.15 K, m1 = 0.0201 | 296 | 997.79
298.15 K, m1 = 0.05 | 314 | 998.88
298.15 K, m1 = 0.0999 | 310.6 | 1000.55
298.15 K, m1 = 0.2501 | 309 | 1005.86
298.15 K, m1 = 0.4998 | 308.1 | 1014.19
298.15 K, m1 = 1 | 306.6 | 1029.78
298.15 K, m1 = 2.002 | 300.7 | 1057.38
298.15 K, m1 = 3.003 | 302.1 | 1080.61
303.15 K, m1 = 0.0201 | 301 | –
303.15 K, m1 = 0.05 | 320 | –
303.15 K, m1 = 0.0999 | 316.6 | –
303.15 K, m1 = 0.2501 | 315 | –
303.15 K, m1 = 0.4998 | 314 | –
303.15 K, m1 = 1 | 312.5 | –
303.15 K, m1 = 2.002 | 306.6 | –
303.15 K, m1 = 3.003 | 307.8 | –
308.15 K, m1 = 0.0201 | 307 | 994.74
308.15 K, m1 = 0.05 | 325 | 995.77
308.15 K, m1 = 0.0999 | 321.8 | 997.29
308.15 K, m1 = 0.2501 | 320.2 | 1002.7
308.15 K, m1 = 0.4998 | 319.2 | 1010.88
308.15 K, m1 = 1 | 317.6 | 1026.18
308.15 K, m1 = 2.002 | 311.8 | 1053.42
308.15 K, m1 = 3.003 | 312.9 | 1076.46
313.15 K, m1 = 0.0201 | 311 | –
313.15 K, m1 = 0.05 | 330 | –
313.15 K, m1 = 0.0999 | 326.5 | –
313.15 K, m1 = 0.2501 | 324.8 | –
313.15 K, m1 = 0.4998 | 323.8 | –
313.15 K, m1 = 1 | 322.3 | –
313.15 K, m1 = 2.002 | 316.4 | –
313.15 K, m1 = 3.003 | 317.4 | –
318.15 K, m1 = 0.0201 | 315 | 990.96
318.15 K, m1 = 0.05 | 334 | 991.95
318.15 K, m1 = 0.0999 | 330.6 | 993.44
318.15 K, m1 = 0.2501 | 328.9 | 998.78
318.15 K, m1 = 0.4998 | 327.9 | –
318.15 K, m1 = 1 | 326.4 | –
318.15 K, m1 = 2.002 | 320.6 | –
318.15 K, m1 = 3.003 | 321.5 | –
